In patent US20210110884A1 (priority 2019, published 2021):

T1: E. coli DHFR (Escherichia coli, UniProt P0ABQ4)
T1 sequence (P0ABQ4 1-159): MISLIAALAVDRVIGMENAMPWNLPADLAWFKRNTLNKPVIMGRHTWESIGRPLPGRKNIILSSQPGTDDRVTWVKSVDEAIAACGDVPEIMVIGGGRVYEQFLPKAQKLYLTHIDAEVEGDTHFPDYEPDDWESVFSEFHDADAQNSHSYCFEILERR

B1: BChEG117: butyrylcholinesterase as printed without H; apparently the enzyme lacking the G117H mutation (protein, UniProt P06276 29-602, looked up)
Cholinesterase: EDDIIIATKNGKVRGMNLTVFGGTVTAFLGIPYAQPPLGRLRFKKPQSLTKWSDIWNATKYANSCCQNIDQSFPGFHGSEMWNPNTDLSEDCLYLNVWIPAPKPKNATVLIWIYGGGFQTGTSSLHVYDGKFLARVERVIVVSMNYRVGALGFLALPGNPEAPGNMGLFDQQLALQWVQKNIAAFGGNPKSVTLFGESAGAASVSLHLLSPGSHSLFTRAILQSGSFNAPWAVTSLYEARNRTLNLAKLTGCSRENETEIIKCLRNKDPQEILLNEAFVVPYGTPLSVNFGPTVDGDFLTDMPDILLELGQFKKTQILVGVNKDEGTAFLVYGAPGFSKDNNSIITRKEFQEGLKIFFPGVSEFGKESILFHYTDWVDDQRPENYREALGDVVGDYNFICPALEFTKKFSEWGNNAFFYYFEHRSSKLPWPEWMGVMHGYEIEFVFGLPLERRDNYTKAEEILSRSIVKRWANFAKYGNPNETQNNSTSWPVFKSTEQKYLTLNTESTRIMTKLRAQQCRFWTSFFPKVLEMTGNIDEAEWEWKAGFHRWNNYMMDWKNQFNDYTSKKESCVGL

How the values were obtained:
[1] = target: T1, E. coli DHFR; assay type: biochemical
[2] = assay type: biochemical

Molecule | decrease of hydride transfer by E. coli DHFR [1] | pH independent rate for hydride transfer [1] | inhibition by selected OP concentrations [2]
CC(C)O [isopropanol] | 2.2 fold | 530±10 s^−1 | –
B1 | – | – | > 99%
